Data set [1] is described as follows: Pharmacokinetic analysis of granisetron and olanzapine formulation in canines (plasma concentration by LC/MS/MS). It counts as in vivo. Conditions: both sexes, dog, dogs, same formulation, approx. 5 mg granisetron, read-out: Average Plasma Concentrations of Granisetron. The method, then: Plasma samples were taken from each dog at the following time points: 0, 0.5, 1, 3, 6, 8, 24, 48, 72, 96, 120 hours, and frozen.

The conditions of data set [2]: cited from earlier work.

Consider `CN1C2CCCC1CC(NC(=O)c1nn(C)c3ccccc13)C2` (centres unmarked) [Granisetron, granisetron], for which the concentration at 0.5 h in data set [1] (0.5 hrs) is 11.7 ng/mL. In addition, in data set [1] (1 hr), the concentration at 1 h was determined as 14.3 ng/mL. The concentration at 3 h in data set [1] (3 hrs) amounted to 14.2 ng/mL. Besides, the concentration at 6 h in data set [1] (6 hrs) is 10.7 ng/mL. Further, the concentration at 8 h in data set [1] (8 hrs) was found to be 8.02 ng/mL. Further, the concentration at 24 h in data set [1] (24 hrs) is 6.82 ng/mL. For the same molecule, the concentration at 48 h in data set [1] (48 hrs) came to 3.27 ng/mL. In addition, the concentration at 72 h in data set [1] (72 hrs) was 1.54 ng/mL. In data set [1] (96 hrs), the concentration at 96 h turned out to be 0.95 ng/mL. Also, in data set [1] (120 hrs), the concentration at 120 h stood at 0.4 ng/mL.
As to `Cc1cc2c(s1)Nc1ccccc1N=C2N1CCN(C)CC1` [Olanzapine, 2-methyl-10-(4-methyl-1-piperazinyl)-4H-thieno[2,3-b][1,5]benzodiazepine], the Solubility in water entry in data set [2] is reported as “practically insoluble”.

The values above are taken from patent US20200061035A1 (Heron Therapeutics, Inc., priority 2016, published 2020).
